Data set [1] concerns Histone deacetylase (HDAC). In words: Histone deacetylase assay (Fluor-de-Lys) in MCF-7 cells. In kind it is cell-based, human. The following applies: MCF-7, 24 h, IC50 concentrations. The procedure, abridged: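 MCF-7 cells exposed 24 h to increasing compound concentrations; HDAC activity measured with Fluor-de-Lys cellular fluorometric kit (ex 360/em 460 nm), also in nuclear extracts from treated cells. IC50 taken for inhibition of cellular HDAC activity.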

A further data set relates to A2780 cells. In words: MTT cytotoxicity assay, A2780. Format: cell-based, human. As to conditions: A2780, 72 h exposure, MTT; read-out: IC50 (median growth inhibitory concentration). The procedure, abridged: (§1)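 Platinum(IV) complexes from fresh DMSO stocks, final 0.5% DMSO in medium; cisplatin and oxaliplatin dissolved fresh in 0.9% NaCl. A2780, cisplatin-resistant A2780cisR and A498 cells tested by MTT in triplicate cultures.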

A further data set has as its system A2780cisR cells. As to the kind of experiment: MTT cytotoxicity assay, A2780cisR (cisplatin resistant). In kind it is cell-based, human. The following applies: A2780cisR, 72 h exposure, MTT; read-out: IC50 (median growth inhibitory concentration). The procedure, abridged:
as §1

The next data set concerns A498 cells. As to the kind of experiment: MTT cytotoxicity assay, A498. Format: cell-based, human. As to conditions: A498, 72 h exposure, read-out: IC50 (median growth inhibitory concentration). In a few lines: as §1
A general note: Tetrazolium assays rely on reduction of a dye to a coloured formazan, in cell work by metabolically active cells.

The test system of data set [2] is Lewis lung carcinoma (LLC). As to the kind of experiment: In vivo efficacy study, Lewis lung carcinoma mouse model. On the set-up: species or system C57BL mice. The following applies: day 7-14. The method, then: A preliminary in vivo efficacy study was carried out on a mouse model (see Table 3 below):
Lewis lung carcinoma (LLC) was implanted i.m. (2·10^6 cells inoculum) into the right hind leg of 8-week old inbred C57BL mice (24±3 g body weight). Chemotherapy was delayed until the tumor became visible (day 7).

The nature of data set [3]: Stability in cell culture medium DMEM (NMR). Format: physicochemical. As to conditions: 37° C. The method, then: A solution 2.0 mM of 3a (Scheme 4) in DMEM was kept at 37° C. for 3 days. NMR measurements were performed every day.
A phosphate buffer solution is an oversimplified model for medium of biological relevance in order to test the stability of a drug candidate. […] Thus, as following step, we evaluated the stability of 3a in cell culture medium DMEM, where the biomolecules present can affect the overall degradation process. A 2.0 mM solution of 3a in DMEM monitored by ^1H NMR spectroscopy for 3 days at 37° C. (FIG. 8).

Data set [4] is described as follows: Cyclic voltammetric measurements. In kind it is physicochemical. The following applies: cyclic voltammetry. The method, then:
Finally, units 1a and 2a (Scheme 4) were used for the formation of a peptide bond, to afford 3a. DMSO turned out to be a good solvent for this reaction, although DMF also afforded good results. ^1H NMR assignments for 1a, 2a, and 3a (Scheme 4) are summarized in Table 4. Cylic voltammetric measurements (CV) were performed on complex 3a and 3b finding Ep values of −0.462 and −0.058 V. The first reduction peak was assigned to the reduction of the cisplatin-derivative portion of the dinuclear complex, because of similarity with the values reported for similar complexes. The less negative reduction peak was assigned to the Pt-Phenantroline metal center, because of similarity to the values reported for the bis axial phenylbutyrato Pt(IV) complex Pt56MeSS(PhB)2.

As to `[NH2][Pt]([NH2])([Cl])[Cl]` [CDDP, Cisplatin, reference compound], in data set [1], the “effect on HDAC activity (in words)” value is “not effective in modifying HDAC activity”. Further, the IC50 in the data set on A2780 cells was 2.8 ± 0.2 µM; in the data set on A2780cisR cells, 13.8 ± 0.2 µM; in the data set with A498 cells it was 17.5 ± 1.21 µM. For the same compound, the “Average tumor weight (mean ± SD, g)” value is on record as 0.150 ± 0.07 g in data set [2] (daily dose 1.5 mg kg^-1 i.p.) and 0.044 ± 0.07 g in data set [2] (daily dose 3 mg kg^-1 i.p.). Also, the “Inhibition of tumor growth (%)” value is recorded as 73.35% in data set [2] (daily dose 1.5 mg kg^-1 i.p.) and 92.18% in data set [2] (daily dose 3 mg kg^-1 i.p.).

Take “c,c,t,t,c,c-[(DACH)(56Phen)(PhBu)Pt(μ-OOC—(CH2)2—CONH(CH2)3COO)—Pt(DCA)(NH3)2 (Cl2)](TFA)2 [Compound 3a]”: the figures for the “Pt(IV)-phen moiety reduced” value in data set [3] (after 1 day), in data set [3] (after 2 days) and in data set [3] (after 3 days) were “about 22%”, 39% and 58%, respectively. Further, in data set [4], the “Ep, first reduction peak (cisplatin-derivative portion)” value is on record as −0.462 V. The “Ep, less negative reduction peak (Pt-Phenantroline metal center)” value in data set [4] is reported as −0.058 V.

These data come from patent US20190290656A1, “PT(IV) PRODRUGS” (YISSUM RESEARCH DEVELOPMENT COMPANY OF THE HEBREW …, priority 2015, published 2019).
